Test results taken from patent publication US20050065140A1, “Serotonine reuptake inhibitor” (priority 2001, published 2005).

molecular target: T1, serotonin 1A receptors ([^3H]8-OH-DPAT binding, hippocampus membrane preparation) (Rattus norvegicus, UniProt P19327); test: [^3H]8-OH-DPAT binding test (Test Example 2); conditions: [^3H]8-OH-DPAT 2 nM, test concentration not given
T1 construct: 146 μl of the hippocampus membrane preparation (80 μg/tube in terms of protein); from tissue; host or cells: rat hippocampus membrane preparation
T1 sequence (P19327 1-422): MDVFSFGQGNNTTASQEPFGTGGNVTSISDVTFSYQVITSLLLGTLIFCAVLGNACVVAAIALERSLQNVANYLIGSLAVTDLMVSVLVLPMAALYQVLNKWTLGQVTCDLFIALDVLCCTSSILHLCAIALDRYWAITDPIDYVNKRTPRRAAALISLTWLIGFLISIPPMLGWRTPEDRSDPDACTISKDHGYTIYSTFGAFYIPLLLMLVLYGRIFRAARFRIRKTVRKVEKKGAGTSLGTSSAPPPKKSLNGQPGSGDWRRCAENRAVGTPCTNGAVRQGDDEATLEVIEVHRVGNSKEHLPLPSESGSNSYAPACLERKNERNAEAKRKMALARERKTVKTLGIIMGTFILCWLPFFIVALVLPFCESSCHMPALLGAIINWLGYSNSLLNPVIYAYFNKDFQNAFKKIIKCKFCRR
Procedure: [^3H]8-OH-DPAT Binding Test
The test was carried out according to the method^2 of Hall M. D. et al. After about one week of pre-breeding, a male rat was decapitated and the brain was immediately removed. The hippocampus was dissected from the brain on ice, and 50 mM Tris-HCl (pH=7.4) was added to the hippocampus in an amount of 40 times the wet weight of the hippocampus, followed by homogenization (3 min, 1 stroke/min) in an ice bath by the use of a Teflon-glass homogenizer. Then, the homogenate was centrifuged (4° C.) at 40,000×g for 10 minutes. The resulting precipitate was dispersed in an ice-cooled buffer solution (50 mM Tris-HCl (pH=7.4)) by the use of Hiscotron™, followed by centrifugation (4° C.) at 40,000×g for 10 minutes. Moreover, the resulting precipitate was re-suspended and the washing procedure was repeated once. The precipitate thus obtained was dispersed in an ice-cooled buffer solution (50 mM Tris-HCl (pH=7.4)) by the use of Hiscotron™, and the resulting dispersion was incubated at 37° C. for 1 hour and then centrifuged (4° C.) at 40,000×g for 10 minutes. Furthermore, the resulting precipitate was re-suspended and the washing procedure was repeated once. The membrane preparation thus obtained was suspended in the same buffer solution as described above, and then subjected to cryopreservation at −80° C.
Measurement was carried out by using a liquid for reaction (total volume: 200 μl) obtained by adding 50 μl of [^3H]8-OH-DPAT (final concentration: 2 nM), 4 μl of a solution of a test drug and 146 μl of the hippocampus membrane preparation (80 μg/tube in terms of protein) to a buffer solution containing 50 mM Tris-HCl (pH=7.4) and 4 mM CaCl2. After the liquid for reaction was allowed to react at room temperature for 30 minutes, it was immediately filtered by suction at a low pressure through glass fiber filter. The glass fiber filter was washed twice with 250 μl of a buffer solution and then added to a glass vial containing 4 ml of ACS-II (Amersham), and the radioactivity bound to receptors and remaining on the filter was measured with a liquid scintillation counter. Non-specific binding of [^3H]8-OH-DPAT was defined as the amount of [^3H]8-OH-DPAT bound in the presence of 1 μM 8-OH-DPAT.
Rate of binding inhibition was calculated by the following equation:
Rate of binding inhibition (%)=100−100×{[amount of [^3H]8-OH-DPAT bound in the presence of test substance]−[amount of [^3H]8-OH-DPAT bound in the presence of 1 μM 8-OH-DPAT]/[amount of [^3H]8-OH-DPAT bound in the absence of test substance]−[amount of [^3H]8-OH-DPAT bound in the presence of 1 μM 8-OH-DPAT]}

In order of falling “Rate of inhibition of [^3H]8-OH-DPAT binding (%)” value:
1. CCN(CC)[C@H]1CC[C@@H](CCCN2CCC(Cc3cc(OC)ccc3Br)CC2)CC1.Cl.Cl [Example 54, cis-N-(4-(3-(4-(2-bromo-5-methoxybenzyl)-piperidin-1-yl)propyl)cyclohexyl)-N,N-diethylamine Dihydrochloride]  99%
2. COc1ccc(Br)c(CC2CCN(CC[C@H]3CC[C@@H](CCO)CC3)CC2)c1.Cl [Example 64, cis-2-(4-(2-(4-(2-Bromo-5-methoxybenzyl)-piperidin-1-yl)ethyl)cyclohexyl)ethanol Hydrochloride]  96%
3. COc1ccc(Br)c(CC2CCN(CC3CCc4ccccc4N3)CC2)c1.Cl.Cl (stereo not shown) [Example 69, 2-((4-(2-Bromo-5-methoxybenzyl)piperidin-1-yl)methyl)-1,2,3,4-tetrahydroquinoline Dihydrochloride]  96%
4. CCN[C@H]1CC[C@H](CCN2CCC(Cc3cc(OC)ccc3Br)CC2)CC1.Cl.Cl [Example 38, trans-N-(4-(2-(4-(2-bromo-5-methoxybenzyl)-piperidin-1-yl)ethyl)cyclohexyl)-N-ethylamine Dihydrochloride]  96%
5. COc1ccc(Br)c(CC2CCN(CC[C@H]3CC[C@H](NS(=O)(=O)N(C)C)CC3)CC2)c1.Cl [Example 47, trans-N′-(4-(2-(4-(2-bromo-5-methoxybenzyl)-piperidin-1-yl)ethyl)cyclohexyl)-N,N-dimethylsulfamide hydrochloride]  95%
6. CCN(CCOC)[C@H]1CC[C@H](CCN2CCC(Cc3cc(OC)ccc3Br)CC2)CC1.Cl.Cl [Example 58, trans-N-(4-(2-(4-(2-bromo-5-methoxybenzyl)-piperidin-1-yl)ethyl)cyclohexyl)-N-ethyl-N-(2-methoxyethyl)amine Dihydrochloride]  92%
7. CO[C@H]1CC[C@H](CCN2CCC(Cc3cc(OC(C)C)ccc3Br)CC2)CC1.Cl [Example 44, trans-4-(2-Bromo-5-isopropoxybenzyl)-1-(2-(4-methoxycyclohexyl)ethyl)piperidine Hydrochloride]  92%
8. COc1ccc(Br)c(CC2CCN(CC[C@H]3CC[C@H](NC(=O)C(F)(F)F)CC3)CC2)c1.Cl [Example 48, trans-N-(4-(2-(4-(2-bromo-5-methoxybenzyl)-piperidin-1-yl)ethyl)cyclohexyl)-2,2,2-trifluoro-acetamide Hydrochloride]  90%
9. COc1ccc(Br)c(CC2CCN(CC3CNc4ccccc4C3)CC2)c1.Cl.Cl (stereo not shown) [Example 70, 3-((4-(2-Bromo-5-methoxybenzyl)piperidin-1-yl)methyl)-1,2,3,4-tetrahydroquinoline Dihydrochloride]  86%
10. Cl.Cl.Clc1ccc(Br)c(CC2CCN(CC3CCc4ccccc4N3)CC2)c1 (stereo not shown) [Example 67, 2-((4-(2-Bromo-5-chlorobenzyl)piperidin-1-yl)methyl)-1,2,3,4-tetrahydroquinoline Dihydrochloride]  73%
11. COc1ccc(Br)c(CC2CCN(CCC3CCN(CCO)CC3)CC2)c1.Cl.Cl [Example 6, 2-(4-(2-(4-(2-Bromo-5-methoxybenzyl)-1-piperidinyl)ethyl)-1-piperidinyl)ethanol Dihydrochloride]  71%
12. CCN([C@H]1CC[C@H](CCCN2CCC(Cc3cc(OC(C)C)ccc3Br)CC2)CC1)S(C)(=O)=O.Cl [Example 46, trans-N-(4-(3-(4-(2-bromo-5-isopropoxy-benzyl)piperidin-1-yl)propyl)cyclohexyl)-N-ethylmethanesulfonamide Hydrochloride]  65%
13. CC(C)Oc1ccc(Br)c(CC2CCN(CC3CCc4ccccc4N3)CC2)c1.Cl.Cl (stereo not shown) [Example 65, 2-((4-(2-Bromo-5-isopropoxybenzyl)piperidin-1-yl)methyl)-1,2,3,4-tetrahydroquinoline Dihydrochloride]  60%
